Non-standard residues stand in square brackets, D forms with d. Residues, ends and D or L forms follow the SMILES beside them. *: point of attachment. Palmitoyl = CCCCCCCCCCCCCCCC(=O)*; Dap = NC[C@H](N)C(=O)O
How the values were obtained:
[1] = tested on: T1, Lysosomal acid glucosylceramidase (Homo sapiens), P04062 [N409S]; assay: Induction of beta glucosidase N370S mutant activity in cells derived from Gaucher disease patient at 20 uM relative to control
T1 sequence (whole entry): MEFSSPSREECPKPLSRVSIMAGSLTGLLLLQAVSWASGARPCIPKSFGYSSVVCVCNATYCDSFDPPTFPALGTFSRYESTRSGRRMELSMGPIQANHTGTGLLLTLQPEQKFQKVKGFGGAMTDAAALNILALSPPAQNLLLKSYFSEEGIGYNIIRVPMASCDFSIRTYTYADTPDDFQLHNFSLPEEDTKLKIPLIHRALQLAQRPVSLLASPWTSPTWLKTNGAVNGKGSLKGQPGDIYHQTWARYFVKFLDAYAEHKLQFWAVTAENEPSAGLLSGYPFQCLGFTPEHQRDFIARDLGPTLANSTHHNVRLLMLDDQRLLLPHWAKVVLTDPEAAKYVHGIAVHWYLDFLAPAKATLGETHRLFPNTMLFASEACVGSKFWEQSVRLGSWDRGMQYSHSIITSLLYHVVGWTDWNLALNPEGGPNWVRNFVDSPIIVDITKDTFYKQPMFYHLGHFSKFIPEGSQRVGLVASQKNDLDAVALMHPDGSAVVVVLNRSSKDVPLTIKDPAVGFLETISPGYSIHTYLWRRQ

Beta-galactosidase = biological target: T2, Beta-galactosidase (Homo sapiens, UniProt P16278); assay: Inhibition of human beta galactosidase
T2 sequence (P16278 whole entry): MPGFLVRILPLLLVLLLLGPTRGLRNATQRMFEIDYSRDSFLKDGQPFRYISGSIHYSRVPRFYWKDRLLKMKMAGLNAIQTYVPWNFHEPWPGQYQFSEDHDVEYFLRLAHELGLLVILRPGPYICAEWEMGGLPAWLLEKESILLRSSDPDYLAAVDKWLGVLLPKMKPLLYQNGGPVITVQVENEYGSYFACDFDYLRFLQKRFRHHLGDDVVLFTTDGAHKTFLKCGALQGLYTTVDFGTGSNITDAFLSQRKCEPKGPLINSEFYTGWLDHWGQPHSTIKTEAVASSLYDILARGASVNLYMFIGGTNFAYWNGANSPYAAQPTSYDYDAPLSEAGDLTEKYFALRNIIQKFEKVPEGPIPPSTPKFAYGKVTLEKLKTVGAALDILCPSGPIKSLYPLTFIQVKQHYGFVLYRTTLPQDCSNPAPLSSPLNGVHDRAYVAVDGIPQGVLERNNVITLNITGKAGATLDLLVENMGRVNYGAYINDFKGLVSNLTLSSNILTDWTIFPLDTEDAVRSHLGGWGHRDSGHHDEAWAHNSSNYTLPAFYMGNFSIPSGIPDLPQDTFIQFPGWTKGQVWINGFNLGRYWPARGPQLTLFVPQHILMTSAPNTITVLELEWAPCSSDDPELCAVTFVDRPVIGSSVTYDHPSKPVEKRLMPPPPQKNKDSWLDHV

Homo sapiens [2] = species: Homo sapiens; assay: Induction of beta-hexosaminidase S activity in fibroblasts derived from ISD patient at 100 uM after 5 days by Western blotting analysis relative to control
Mus musculus [3] = assay: Induction of beta glucosidase L444P mutant in mouse brain administered with drinking water measured after 4 weeks relative to control; type: functional
Homo sapiens [4] = species: Homo sapiens; assay: Induction of beta-hexosaminidase S in fibroblasts derived from ISD patient at 10 uM after 5 days by Western blotting analysis relative to control
[5] = tested on: T3, Alpha-galactosidase A (Homo sapiens), P06280 [R301Q]; assay: Induction of alpha galactosidase A R301Q mutant activity in lymphoblasts derived from Fabry disease patient at 100 uM after 4 days relative to control
T3 sequence (whole entry): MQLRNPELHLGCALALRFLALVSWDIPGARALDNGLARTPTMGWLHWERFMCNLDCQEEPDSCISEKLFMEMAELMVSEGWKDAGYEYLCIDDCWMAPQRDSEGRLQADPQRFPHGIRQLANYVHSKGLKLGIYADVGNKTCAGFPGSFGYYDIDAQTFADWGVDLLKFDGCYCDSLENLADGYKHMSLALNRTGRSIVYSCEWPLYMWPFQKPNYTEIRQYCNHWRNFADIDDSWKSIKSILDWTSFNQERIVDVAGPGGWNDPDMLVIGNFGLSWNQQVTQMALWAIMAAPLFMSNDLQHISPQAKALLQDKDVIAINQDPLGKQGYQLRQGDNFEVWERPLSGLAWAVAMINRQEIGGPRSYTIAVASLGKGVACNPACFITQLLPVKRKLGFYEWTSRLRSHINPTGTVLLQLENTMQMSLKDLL

Mus musculus [6] = assay: Induction of human alpha galactosidase A R301Q mutant activity expressed in C57BL/6 transgenic alpha galactosidase A knockout mouse at 30 mg/kg/day, po administered for 2 weeks measured in liver relative to control; type: functional
Mus musculus [7] = assay: Induction of human alpha galactosidase A R301Q mutant activity expressed in C57BL/6 transgenic alpha galactosidase A knockout mouse at 3 mg/kg/day, po administered for 2 weeks measured in liver relative to control; type: functional
Mus musculus [8] = assay: Induction of human alpha galactosidase A R301Q mutant activity expressed in C57BL/6 transgenic alpha galactosidase A knockout mouse at 30 mg/kg/day, po administered for 2 weeks measured in spleen relative to control; type: functional
Mus musculus [9] = assay: Induction of human alpha galactosidase A R301Q mutant activity expressed in C57BL/6 transgenic alpha galactosidase A knockout mouse at 3 mg/kg/day, po administered for 2 weeks measured in spleen relative to control; type: functional
Mus musculus [10] = assay: Induction of in human alpha galactosidase A R301Q mutant activity expressed in C57BL/6 transgenic alpha galactosidase A knockout mouse at 30 mg/kg/day, po administered for 2 weeks measured in kidney relative to control; type: functional
Mus musculus [11] = assay: Induction of human alpha galactosidase A R301Q mutant activity expressed in C57BL/6 transgenic alpha galactosidase A knockout mouse at 3 mg/kg/day, po administered for 2 weeks measured in kidney relative to control; type: functional
Mus musculus [12] = assay: Induction of human alpha galactosidase A R301Q mutant activity expressed in C57BL/6 transgenic alpha galactosidase A knockout mouse at 30 mg/kg/day, po administered for 2 weeks measured in heart relative to control; type: functional
Mus musculus [13] = assay: Induction of human alpha galactosidase A R301Q mutant activity expressed in C57BL/6 transgenic alpha galactosidase A knockout mouse at 3 mg/kg/day, po administered for 2 weeks measured in heart relative to control; type: functional
[14] = biological target: T4, Palmitoyl-protein thioesterase 1 (Homo sapiens, UniProt P50897); assay: Inhibition of PPT1 (unknown origin) in cell lysates using fluorescent-based MUGSP as substrate after 1 to 3 hrs
T4 sequence (P50897 whole entry): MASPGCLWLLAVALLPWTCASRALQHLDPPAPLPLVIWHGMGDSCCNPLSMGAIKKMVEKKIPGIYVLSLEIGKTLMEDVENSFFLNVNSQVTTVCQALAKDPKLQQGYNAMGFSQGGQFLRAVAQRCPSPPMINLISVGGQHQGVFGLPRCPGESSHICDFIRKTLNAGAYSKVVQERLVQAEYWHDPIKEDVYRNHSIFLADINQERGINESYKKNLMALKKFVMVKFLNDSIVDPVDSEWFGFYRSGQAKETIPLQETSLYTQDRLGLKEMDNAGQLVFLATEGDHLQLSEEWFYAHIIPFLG

Homo sapiens [15] = species: Homo sapiens; assay: Induction of beta glucosidase G202R mutant activity in primary skin fibroblast derived from patient after 5 days relative to control
[16] = tested on: T1, Lysosomal acid glucosylceramidase (Homo sapiens), P04062 [N409S]; assay: Induction of beta glucosidase N370S mutant activity in primary skin fibroblast derived from Gaucher disease patient after 5 days relative to control
Homo sapiens [17] = species: Homo sapiens; assay: Induction of beta-hexosaminidase S in fibroblasts derived from ISD patient after 5 days by Western blotting analysis relative to control
[18] = tested on: T1, Lysosomal acid glucosylceramidase (Homo sapiens), P04062 [N409S]; assay: Induction of beta glucosidase N370S mutant activity in primary skin fibroblast derived from Gaucher disease patient at 20 uM after 5 days relative to control
Beta-glucosidase = biological target: T5, Beta-glucosidase (Homo sapiens, UniProt Q9HCG7); assay: Inhibition of beta glucosidase (unknown origin)
T5 sequence (Q9HCG7 whole entry): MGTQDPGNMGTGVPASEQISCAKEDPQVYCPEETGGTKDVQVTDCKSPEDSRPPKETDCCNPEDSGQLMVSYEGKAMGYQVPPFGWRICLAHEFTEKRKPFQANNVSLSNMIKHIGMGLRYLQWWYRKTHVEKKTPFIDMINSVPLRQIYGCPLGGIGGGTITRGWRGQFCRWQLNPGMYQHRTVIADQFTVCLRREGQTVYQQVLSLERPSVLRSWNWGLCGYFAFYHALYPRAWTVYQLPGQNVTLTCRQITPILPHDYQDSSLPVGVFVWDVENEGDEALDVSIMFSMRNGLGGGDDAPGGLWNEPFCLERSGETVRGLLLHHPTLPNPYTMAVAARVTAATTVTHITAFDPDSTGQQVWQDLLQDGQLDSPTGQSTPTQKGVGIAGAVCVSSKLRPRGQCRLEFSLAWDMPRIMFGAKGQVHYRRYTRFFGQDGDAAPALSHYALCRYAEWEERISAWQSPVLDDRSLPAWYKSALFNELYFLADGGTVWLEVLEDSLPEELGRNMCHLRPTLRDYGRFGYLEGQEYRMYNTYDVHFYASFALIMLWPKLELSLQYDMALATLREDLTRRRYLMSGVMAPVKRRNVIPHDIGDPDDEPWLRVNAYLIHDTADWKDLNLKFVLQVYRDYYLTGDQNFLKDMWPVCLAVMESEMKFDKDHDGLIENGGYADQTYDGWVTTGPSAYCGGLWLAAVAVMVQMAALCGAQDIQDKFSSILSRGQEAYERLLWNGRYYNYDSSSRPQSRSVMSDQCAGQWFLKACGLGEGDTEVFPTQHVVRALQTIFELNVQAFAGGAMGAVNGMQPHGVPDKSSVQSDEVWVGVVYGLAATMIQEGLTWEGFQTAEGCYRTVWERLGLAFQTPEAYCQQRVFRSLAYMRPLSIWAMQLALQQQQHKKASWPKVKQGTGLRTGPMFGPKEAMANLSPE

Homo sapiens [19] = species: Homo sapiens; assay: Induction of beta hexosaminidase activity in patient derived cell-line at 50 uM relative to control
[20] = Non competitive inhibition of beta hexosaminidase (unknown origin); design: species or system Homo sapiens

`OC[C@@H]1[C@@H](O)C(O)[C@@H](O)CN1CCCn1cc(COc2ccccc2)nn1` (single isomer, unassigned) showed a fold change (FC) [1] of 1.9.
In the case of `CCCCCCCCN[C@@H]1C=C(CO)[C@H](O)[C@H](O)[C@H]1O`, the Ki (Beta-galactosidase) is reported as 0.3 µM.
With `Cc1[nH]cc2c(=O)n(Cc3ccc(Cl)cc3)ncc12` the fold change (FC) (Homo sapiens [2]) was 2.5.
For `OC[C@H]1CNC[C@@H](O)[C@@H]1O` [AFEGOSTAT], the “fold change (FC)” value (Mus musculus [3]) was 2.
`O=C1c2cccc3cccc(c23)C(=O)N1CCNCCN1C(=O)c2cccc3cccc(c23)C1=O` showed a fold change (FC) (Homo sapiens [4]) of 3.
In the case of `OC[C@H]1NC[C@H](O)[C@@H](O)[C@H]1O`, the fold change (FC) [5] is reported as 14, the “fold change (FC)” value (Mus musculus [6]) is reported as 7.1 and the “fold change (FC)” value (Mus musculus [7]) is reported as 3.1. For the same compound, the “fold change (FC)” value (Mus musculus [8]) was 1.8, the “fold change (FC)” value (Mus musculus [9]) was 1.7 and the “fold change (FC)” value (Mus musculus [10]) was 28. The “fold change (FC)” value (Mus musculus [11]) was 2, the “fold change (FC)” value (Mus musculus [12]) was 18 and the “fold change (FC)” value (Mus musculus [13]) was 4.
For `CCCCCCCCCCCCCCCC(=O)NC[C@H](NC(=O)CNC(C)=O)C(=O)N[C@H](C(=O)N[C@@H](CCCCN)C(=O)N[C@H](C(=O)N[C@@H](CCCCN)C(=O)N[C@@H](CCCCN)C(=O)O)[C@@H](C)CC)C(C)C` (Ac-G[Dap](Palmitoyl)VKIKK-OH), the IC50 [14] was 10 µM.
`O=C(CCCCCN1C[C@H](O)[C@@H](O)[C@H](O)[C@H]1CO)NC12CC3CC(CC(C3)C1)C2` gave a fold change (FC) (Homo sapiens [15]) of 2.7 and a fold change (FC) [16] of 1.4.
Compound `O=C1c2ccccc2/C(=N/O)C1[N+](=O)[O-]` (configuration not stated) has a fold change (FC) (Homo sapiens [17]) of 2.
`CN(C)c1cccc2c(S(=O)(=O)NCCCCCCN(CCCCCCNS(=O)(=O)c3cccc4c(N(C)C)cccc34)C(=O)CCCCCCN3C[C@H](O)[C@@H](O)[C@H](O)[C@H]3CO)cccc12` gave a fold change (FC) [18] of 1.6.
Compound `O[C@H]1[C@H](O)[C@@H](O)CN2CC[C@H](O)[C@H]12` [CASTANOSPERMINE] has an IC50 (Beta-glucosidase) of 19 µM.
For `CC(=O)N[C@H]1CN(Cc2ccccc2)[C@@H](CO)[C@@H]1O`, the fold change (FC) (Homo sapiens [19]) was 2 and the Ki [20] was 2.8 µM.

Reference: ChEMBL document CHEMBL2331344, “Pharmacological chaperones as therapeutics for lysosomal storage diseases” (J Med Chem, 2013)
